The source made the active and inactive calls. The rule behind the calls is not given here.
Key:
COLO 205 [1] = assay: Antiproliferative activity against human COLO 205 cells assessed as viable cell signal at maximum growth inhibition incubated for 72 hrs by celltiter-glo assay relative to control; assay type: functional
[2] = biological target: Calcium/calmodulin-dependent protein kinase type II subunit delta (Homo sapiens) (UniProt Q13557); assay: Inhibition recombinant human CAMKII-delta at 10 uM relative to control
ASPC1 [3] = assay: Antiproliferative activity against human ASPC1 cells assessed as of viable cell signal at minimum maximum cell growth incubated for 72 hrs by celltiter-glo assay relative to control; assay type: functional
SK-MEL-28 = assay: Antiproliferative activity against human SK-MEL-28 cells assessed as viable cell signal at maximum growth inhibition incubated for 72 hrs by celltiter-glo assay relative to control; assay type: functional
RKO = assay: Antiproliferative activity against human RKO cells assessed as viable cell signal at maximum growth inhibition incubated for 72 hrs by celltiter-glo assay relative to control; assay type: functional
OVCAR-4 = assay: Antiproliferative activity against human OVCAR-4 cells assessed as viable cell signal at maximum growth inhibition incubated for 72 hrs by celltiter-glo assay relative to control; assay type: functional
ASPC1 [4] = assay: Antiproliferative activity against human ASPC1 cells assessed as viable cell signal at maximum growth inhibition incubated for 72 hrs by celltiter-glo assay relative to control; assay type: functional
Panc 02.03 = assay: Antiproliferative activity against human Panc 02.03 cells assessed as growth inhibition incubated for 72 hrs by celltiter-glo assay; assay type: functional
NCI-H460 [5] = assay: Antiproliferative activity against human NCI-H460 cells assessed as of viable cell signal at minimum maximum cell growth incubated for 72 hrs by celltiter-glo assay relative to control; assay type: functional
NCI-H157 = assay: Antiproliferative activity against human NCI-H157 cells assessed as of viable cell signal at minimum maximum cell growth incubated for 72 hrs by celltiter-glo assay relative to control; assay type: functional
Jurkat = assay: Antiproliferative activity against human Jurkat cells assessed as of viable cell signal at minimum maximum cell growth incubated for 72 hrs by celltiter-glo assay relative to control; assay type: functional
[6] = biological target: Platelet-derived growth factor receptor alpha (Homo sapiens) (UniProt P16234); assay: Inhibition of N-terminal his6-tagged recombinant human PDGFRalpha (550 to end residues) expressed in baculovirus Sf21 insect cells at 10 uM relative to control
DU-145 = assay: Antiproliferative activity against human DU-145 cells assessed as of viable cell signal at minimum maximum cell growth incubated for 72 hrs by celltiter-glo assay relative to control; assay type: functional
BT-474 [7] = assay: Antiproliferative activity against human BT-474 cells assessed as of viable cell signal at minimum maximum cell growth incubated for 72 hrs by celltiter-glo assay relative to control; assay type: functional
NCI-H82 = assay: Antiproliferative activity against human NCI-H82 cells assessed as of viable cell signal at minimum maximum cell growth incubated for 72 hrs by celltiter-glo assay relative to control; assay type: functional
NCI-H322M = assay: Antiproliferative activity against human NCI-H322M cells assessed as of viable cell signal at minimum maximum cell growth incubated for 72 hrs by celltiter-glo assay relative to control; assay type: functional
LNCaP = assay: Antiproliferative activity against human LNCaP cells assessed as of viable cell signal at minimum maximum cell growth incubated for 72 hrs by celltiter-glo assay relative to control; assay type: functional
HN5 = assay: Antiproliferative activity against human HN5 cells assessed as growth inhibition incubated for 72 hrs by celltiter-glo assay; assay type: functional
[8] = biological target: Serine/threonine-protein kinase 10 (Homo sapiens) (UniProt O94804); assay: Inhibition of N-terminal his6-tagged recombinant human LOK (1 to 348 residues) expressed in baculovirus Sf21 cells at 10 uM relative to control
MIA PaCa-2 = assay: Antiproliferative activity against human MIA PaCa-2 cells assessed as of viable cell signal at minimum maximum cell growth incubated for 72 hrs by celltiter-glo assay relative to control; assay type: functional
NCI-H1299 = assay: Antiproliferative activity against human NCI-H1299 cells assessed as of viable cell signal at minimum maximum cell growth incubated for 72 hrs by celltiter-glo assay relative to control; assay type: functional
[9] = biological target: Fibroblast growth factor receptor 3 (Homo sapiens) (UniProt P22607); assay: Inhibition of N-terminal his6-tagged recombinant human FGFR3 (447 to 761 residues) expressed in baculovirus Sf21 insect cells at 10 uM relative to control
NCI-H460 [10] = assay: Antiproliferative activity against human NCI-H460 cells assessed as growth inhibition incubated for 72 hrs by celltiter-glo assay; assay type: functional
K562 = assay: Antiproliferative activity against human K562 cells assessed as growth inhibition incubated for 72 hrs by celltiter-glo assay; assay type: functional
SAOS-2 = assay: Antiproliferative activity against human SAOS-2 cells assessed as of viable cell signal at minimum maximum cell growth incubated for 72 hrs by celltiter-glo assay relative to control; assay type: functional
LoVo = assay: Antiproliferative activity against human LoVo cells assessed as of viable cell signal at minimum maximum cell growth incubated for 72 hrs by celltiter-glo assay relative to control; assay type: functional
MDA-MB-468 = assay: Antiproliferative activity against human MDA-MB-468 cells assessed as viable cell signal at maximum growth inhibition incubated for 72 hrs by celltiter-glo assay relative to control; assay type: functional
THP-1 [11] = assay: Antiproliferative activity against human THP-1 cells assessed as viable cell signal at maximum growth inhibition incubated for 72 hrs by celltiter-glo assay relative to control; assay type: functional
THP-1 [12] = assay: Antiproliferative activity against human THP-1 cells assessed as growth inhibition incubated for 72 hrs by celltiter-glo assay; assay type: functional
HL-60 [13] = assay: Antiproliferative activity against human HL-60 cells assessed as of viable cell signal at minimum maximum cell growth incubated for 72 hrs by celltiter-glo assay relative to control; assay type: functional
A549 = assay: Antimitotic activity against human A549 cells assessed as cell cycle block in G2-M phase measuring by accumulation of 4N DNA content at 10 nmol/L incubated for 24 hrs by PI staining based flow cytometric analysis; assay type: functional
HL-60 [14] = assay: Antiproliferative activity against human HL-60 cells assessed as viable cell signal at maximum growth inhibition incubated for 72 hrs by celltiter-glo assay relative to control; assay type: functional
COLO 205 [15] = assay: Antitumor activity against human COLO 205 cells xenografted in Nude mouse assessed as effect on Ki67 level at 50 mg/kg, ip administered one dose every 2 day repeated for 12 days by immunohistochemistry analysis; assay type: functional, organism-based; conditions: time 12.0 day
COLO 205 [16] = assay: Antitumor activity against human COLO 205 cells xenografted in Nude mouse assessed as increase in pHH3 level at 50 to 100 mg/kg, ip administered one dose every 2 day repeated for 12 days by immunohistochemistry analysis; assay type: functional, organism-based; conditions: dose 50-100 mg/kg, time 12.0 day
NCI-H1155 = assay: Antiproliferative activity against human NCI-H1155 cells assessed as growth inhibition incubated for 72 hrs by celltiter-glo assay; assay type: functional
BT-474 [17] = assay: Antiproliferative activity against human BT-474 cells assessed as viable cell signal at maximum growth inhibition incubated for 72 hrs by celltiter-glo assay relative to control; assay type: functional
A2780 = assay: Antiproliferative activity against human A2780 cells assessed as viable cell signal at maximum growth inhibition incubated for 72 hrs by celltiter-glo assay relative to control; assay type: functional
SK-OV-3 = assay: Antiproliferative activity against human SK-OV-3 cells assessed as of viable cell signal at minimum maximum cell growth incubated for 72 hrs by celltiter-glo assay relative to control; assay type: functional

Sequence of Serine/threonine-protein kinase 10 (Homo sapiens) (O94804 whole entry, looked up, the tested form may be a part): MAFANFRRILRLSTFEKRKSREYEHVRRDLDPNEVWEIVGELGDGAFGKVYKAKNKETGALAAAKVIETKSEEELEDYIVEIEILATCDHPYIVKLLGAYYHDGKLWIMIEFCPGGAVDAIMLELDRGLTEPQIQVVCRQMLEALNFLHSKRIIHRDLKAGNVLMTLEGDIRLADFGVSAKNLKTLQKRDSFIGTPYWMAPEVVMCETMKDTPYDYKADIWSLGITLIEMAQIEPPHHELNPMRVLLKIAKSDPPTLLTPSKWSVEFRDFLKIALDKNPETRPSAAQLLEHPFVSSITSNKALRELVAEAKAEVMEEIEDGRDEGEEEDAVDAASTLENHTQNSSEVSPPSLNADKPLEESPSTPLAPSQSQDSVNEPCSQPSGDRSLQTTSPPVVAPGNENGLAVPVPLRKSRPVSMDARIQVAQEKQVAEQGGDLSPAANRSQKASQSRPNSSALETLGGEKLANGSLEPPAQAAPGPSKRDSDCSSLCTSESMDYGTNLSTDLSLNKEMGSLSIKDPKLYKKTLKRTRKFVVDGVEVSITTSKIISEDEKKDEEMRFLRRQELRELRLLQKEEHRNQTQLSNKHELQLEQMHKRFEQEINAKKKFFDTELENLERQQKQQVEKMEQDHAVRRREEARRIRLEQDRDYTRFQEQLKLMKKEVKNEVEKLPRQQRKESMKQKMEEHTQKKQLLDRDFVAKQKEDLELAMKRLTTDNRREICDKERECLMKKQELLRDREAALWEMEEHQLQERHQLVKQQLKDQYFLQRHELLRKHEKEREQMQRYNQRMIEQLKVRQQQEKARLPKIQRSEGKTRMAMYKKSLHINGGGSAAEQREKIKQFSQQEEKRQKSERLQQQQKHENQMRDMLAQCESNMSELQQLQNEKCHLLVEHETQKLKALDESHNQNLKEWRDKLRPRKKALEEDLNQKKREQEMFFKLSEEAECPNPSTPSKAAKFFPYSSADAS
Sequence of Platelet-derived growth factor receptor alpha (Homo sapiens) (P16234 whole entry): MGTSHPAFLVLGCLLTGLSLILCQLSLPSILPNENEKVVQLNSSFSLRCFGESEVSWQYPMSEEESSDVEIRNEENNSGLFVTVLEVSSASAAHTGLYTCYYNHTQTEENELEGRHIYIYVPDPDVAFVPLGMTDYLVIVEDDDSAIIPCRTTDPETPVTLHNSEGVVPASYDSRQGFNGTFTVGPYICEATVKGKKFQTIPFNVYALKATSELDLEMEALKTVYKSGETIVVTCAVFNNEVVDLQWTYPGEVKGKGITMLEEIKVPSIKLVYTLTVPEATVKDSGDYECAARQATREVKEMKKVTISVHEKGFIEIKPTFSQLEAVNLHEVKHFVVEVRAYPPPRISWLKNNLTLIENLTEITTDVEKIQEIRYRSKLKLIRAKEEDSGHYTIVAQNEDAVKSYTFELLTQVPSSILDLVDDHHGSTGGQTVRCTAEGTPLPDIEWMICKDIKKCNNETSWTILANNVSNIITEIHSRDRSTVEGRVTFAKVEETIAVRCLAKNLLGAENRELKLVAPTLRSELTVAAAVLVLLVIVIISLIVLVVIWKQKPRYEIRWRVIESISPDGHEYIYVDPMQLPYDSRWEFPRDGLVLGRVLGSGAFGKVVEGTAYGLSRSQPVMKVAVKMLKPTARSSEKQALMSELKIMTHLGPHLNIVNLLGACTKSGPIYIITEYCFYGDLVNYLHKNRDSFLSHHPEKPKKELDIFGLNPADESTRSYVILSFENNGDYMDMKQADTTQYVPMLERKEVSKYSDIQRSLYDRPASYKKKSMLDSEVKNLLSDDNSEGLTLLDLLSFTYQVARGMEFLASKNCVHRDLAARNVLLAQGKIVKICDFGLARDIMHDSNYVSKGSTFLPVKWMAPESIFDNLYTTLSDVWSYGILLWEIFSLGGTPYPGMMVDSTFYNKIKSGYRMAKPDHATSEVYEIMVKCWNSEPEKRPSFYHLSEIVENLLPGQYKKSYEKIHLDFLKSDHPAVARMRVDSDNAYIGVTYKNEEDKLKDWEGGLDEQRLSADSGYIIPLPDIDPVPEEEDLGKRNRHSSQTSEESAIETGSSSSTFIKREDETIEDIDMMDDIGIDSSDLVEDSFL
Sequence of Fibroblast growth factor receptor 3 (Homo sapiens) (P22607 23-806 limits assumed): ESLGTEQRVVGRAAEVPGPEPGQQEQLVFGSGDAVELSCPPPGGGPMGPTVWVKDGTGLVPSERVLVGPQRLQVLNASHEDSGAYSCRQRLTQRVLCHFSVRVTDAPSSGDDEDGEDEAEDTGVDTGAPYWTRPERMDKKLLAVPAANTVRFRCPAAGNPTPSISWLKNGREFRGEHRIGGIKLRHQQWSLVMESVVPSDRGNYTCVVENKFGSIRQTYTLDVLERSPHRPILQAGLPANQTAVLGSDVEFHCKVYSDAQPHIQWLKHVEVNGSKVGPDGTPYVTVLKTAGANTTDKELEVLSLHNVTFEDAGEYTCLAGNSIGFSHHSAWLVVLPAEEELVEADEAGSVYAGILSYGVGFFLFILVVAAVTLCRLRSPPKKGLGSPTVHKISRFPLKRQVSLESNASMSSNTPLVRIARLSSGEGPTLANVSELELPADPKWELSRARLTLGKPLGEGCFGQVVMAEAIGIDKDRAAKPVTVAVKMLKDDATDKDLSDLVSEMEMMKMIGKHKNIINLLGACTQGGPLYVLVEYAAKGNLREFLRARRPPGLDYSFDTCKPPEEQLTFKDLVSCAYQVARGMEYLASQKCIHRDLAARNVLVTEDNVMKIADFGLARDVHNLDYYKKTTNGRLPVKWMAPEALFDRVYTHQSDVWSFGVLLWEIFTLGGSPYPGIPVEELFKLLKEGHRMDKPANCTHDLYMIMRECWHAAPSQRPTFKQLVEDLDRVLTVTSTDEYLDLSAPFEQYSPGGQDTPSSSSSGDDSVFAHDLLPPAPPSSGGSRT
Sequence of Calcium/calmodulin-dependent protein kinase type II subunit delta (Homo sapiens) (Q13557 whole entry): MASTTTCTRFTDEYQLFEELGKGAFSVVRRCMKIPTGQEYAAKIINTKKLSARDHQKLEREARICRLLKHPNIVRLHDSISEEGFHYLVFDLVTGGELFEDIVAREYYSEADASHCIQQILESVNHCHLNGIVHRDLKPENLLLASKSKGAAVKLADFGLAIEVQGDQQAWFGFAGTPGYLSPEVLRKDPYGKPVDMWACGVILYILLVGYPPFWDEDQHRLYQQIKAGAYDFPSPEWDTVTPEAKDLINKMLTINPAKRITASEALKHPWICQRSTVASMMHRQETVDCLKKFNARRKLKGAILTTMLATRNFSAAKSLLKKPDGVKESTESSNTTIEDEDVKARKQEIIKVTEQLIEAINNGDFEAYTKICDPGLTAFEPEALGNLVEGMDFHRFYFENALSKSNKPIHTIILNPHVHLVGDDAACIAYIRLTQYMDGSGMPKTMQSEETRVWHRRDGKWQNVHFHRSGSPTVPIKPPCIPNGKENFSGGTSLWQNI

For `C[C@@H](Oc1cc(-n2cnc3ccc(CN4CCN(C)CC4)cc32)sc1C(N)=O)c1ccccc1C(F)(F)F` [GSK-461364], the Emax (COLO 205 [1]) was 616%, the inhibition [2] was 88% and the Emin (ASPC1 [3]) was 114%. It also gave an Emax (SK-MEL-28) of 353%, an Emax (RKO) of 456% and an Emax (OVCAR-4) of 342%. For the same compound, the Emax (ASPC1 [4]) was 294%, the GI50 (Panc 02.03) was 20.9 nM and the Emin (NCI-H460 [5]) was 94.6%. For the same compound, the Emin (NCI-H157) was 95.3%, the Emin (Jurkat) was 2.2% and the inhibition [6] was 72%. It also gave an Emin (DU-145) of 69.1%, an Emin (BT-474 [7]) of 217% and an Emin (NCI-H82) of 22.8%. The Emin (NCI-H322M) was 260.3%, the Emin (LNCaP) was 99.3% and the GI50 (HN5) was 15.4 nM. It also gave an inhibition [8] of 86%, an Emin (MIA PaCa-2) of 100.2% and an Emin (NCI-H1299) of 44.4%. For the same compound, the inhibition [9] was 60%, the GI50 (NCI-H460 [10]) was 37.8 nM and the GI50 (K562) was 19.4 nM. It also gave an Emin (SAOS-2) of 83.5%, an Emin (LoVo) of 23.4% and an Emax (MDA-MB-468) of 458%. For the same compound, the Emax (THP-1 [11]) was 349%, the GI50 (THP-1 [12]) was 11.8 nM and the Emin (HL-60 [13]) was 15.3%. The Activity (A549) was “Active”, the Emax (HL-60 [14]) was 191% and the Activity (COLO 205 [15]) was “Active”. For the same compound, the Activity (COLO 205 [16]) was “Active”, the GI50 (NCI-H1155) was 14.4 nM and the Emax (BT-474 [17]) was 226%. For the same compound, the Emax (A2780) was 977% and the Emin (SK-OV-3) was 103.8%.

Source: ChEMBL document CHEMBL5705887, “Distinct concentration-dependent effects of the polo-like kinase 1-specific inhibitor GSK461364A, including differential effect on apoptosis” (Cancer Res, 2009)
